Reference: patent US12377110B2, “Fospropofol methods and compositions” (Epalex Corporation, priority 2019, dated 2025)

Key:
[1] = Study No. 15-4 (GLP): 14-day once daily oral gavage toxicity of fospropofol disodium; format: in vivo, Beagle dogs; conditions: both sexes, dog, in vivo; 14 days once daily oral gavage, Beagle dogs
Experimental: (§1) The purpose of Study No. 15-4 (GLP) was to determine the potential toxicity of fospropofol in Beagle dogs when administered once daily by oral gavage for 14 days. […] Because the treatment-related clinical observations (consistent with the expected transient sedative actions of fospropofol) and effects on hematology and clinical chemistry parameters were considered nonadverse, the NOAEL was determined to be 160 mg/kg/day (3200 mg/m^2/day).
(§2) As in the rat, CNS-related clinical signs were observed which were consistent with the established pharmacodynamic effects of fospropofol. […] The NOAEL was determined to be 160 mg/kg/day (3200 mg/m^2/d) in male and female Beagle dogs.

Beagle dogs = test: as above; format: in vivo
Experimental: as §1, §2

[2] = tested on: moderate to severe migraine headache; test: Study A17: clinical course (headache pain, most bothersome symptom, associated migraine symptoms); format: in vivo, human; conditions: 800 mg oral
Experimental: The study is planned to complete approximately 85 subjects. • Enrolled subjects will be asked to come to the study site for treatment when they experience a qualifying migraine headache. Dosing must occur within 4 hours after onset of the migraine symptoms. If treatment at the study site is not feasible or practicable within 4 hours after onset of migraine symptoms, subjects should use their usual medication for that headache and attempt to visit the clinic for treatment as soon as possible (within 4 hours) after onset of their next migraine headache. Dosing must occur within 60 days after enrollment (see Post-enrollment Period below). • At clinic check-in for treatment, study personnel will verify eligibility for closing regarding the criteria for a qualifying headache and adherence to post-enrollment study restrictions (see Eligibility for Dosing below). • Treatment will consist of a single oral dose of fospropofol disodium. […] Because the prevalence of migraine headaches is higher in women than in men, efforts will be made to enroll at least 50% women. • Subjects must meet the general inclusion and exclusion criteria listed below (Inclusion Criteria and Exclusion Criteria) at screening to be enrolled in the study. To be eligible for fospropofol disodium treatment after onset of a migraine headache, enrolled subjects must meet criteria specific to the presenting headache at clinic check-in (see Qualifying Headache below) and adhere to study restrictions specific to the period between enrollment and clinic check-in (see Post-enrollment Restrictions below). • Inclusion Criteria Subjects must meet all of the following criteria at screening to be enrolled in the study: • 1. Written informed consent approved by the Institutional Review Board (IRB) given before any study-related procedures are performed • 2. […] Complete abstinence alone can be used as a method of contraception. • 6. […] Able to comprehend the nature of the study, capable of giving written informed consent, and able to communicate effectively with clinic staff (as assessed by the investigator) • 8. Available to volunteer for the entire study duration and willing to adhere to all protocol requirements, including the post-enrollment restrictions (see Post-enrollment Restrictions below) • 9. Agrees not to post any information related to the study on any website or social media site (e.g., Facebook, Twitter, LinkedIn, Google+, etc.) until the entire trial has been completed • 10. Willing to forgo rescue medicine for at least 2 hours after initiation of treatment with study drug (see In-Clinic Rescue Medicine) • Exclusion Criteria Subjects to whom any of the following criteria apply at screening will be excluded: • 1. History of hemiplegic migraine (at any time in the past). • 2. History of headaches of any type occurring on ≥15 days/month during any of the 3 months prior to screening. • 3.

[3] = 1 hr postdose, No rescue, N = 18
[4] = 2 h postdose, No rescue, N = 18
[5] = 4 h postdose, No rescue, N = 18
[6] = 24 h postdose (D2), No rescue, N = 18
[7] = 24 h postdose (D2), Total, N = 18
[8] = 48 h postdose (D3), Rescue, N = 18
[9] = 48 h postdose (D3), Total, N = 18

SMILES: CC(C)c1cccc(C(C)C)c1OCOP(=O)([O-])O.[Na+] [fospropofol disodium]
- NOAEL at 14 days [1]: 160 mg/kg/day
- Tolerability (Beagle dogs; 0, 50, 100, and 160 mg/kg/day for 14 consecutive days): well tolerated at all close levels with no adverse findings
- Mortalities (Beagle dogs; 0, 50, 100, and 160 mg/kg/day for 14 days): no mortalities
- NOAEL (Beagle dogs; 14 days once daily oral gavage, Beagle dogs): 3200 mg/m^2/day
- Histopathology, all tissues including GIT-related (Beagle dogs; up to 160 mg/kg/day): no treatment-related histopathological findings
- Body weights, cardiovascular evaluations (ECGs, QTc), ophthalmology, clinical pathology, organ weights (Beagle dogs; up to 160 mg/kg/day for 14 days): no toxicologically significant changes
- Sustained MBS-free response: No, % ([2]; 2-24 hours postdose, N = 18): (44.4) %
- Sustained MBS-free response: Yes, % ([2]; 2-24 hours postdose, N = 18): (55.6) %
- Sustained headache pain freedom: No, % ([2]; 2-24 hours postdose, N = 18): (77.8) %
- Sustained headache pain freedom: Yes, % ([2]; 2-24 hours postdose, N = 18): (22.2) %
- Sustained headache pain relief: No, % ([2]; 2-24 hours postdose, N = 18): (33.3) %
- Sustained headache pain relief: Yes, % ([2]; 2-24 hours postdose, N = 18): (66.7) %
- Sustained MBS-free response: No, % ([2]; 2-48 hours postdose, N = 18): (50) %
- Sustained MBS-free response: Yes, % ([2]; 2-48 hours postdose, N = 18): (50) %
- Sustained headache pain freedom: No, % ([2]; 2-48 hours postdose, N = 18): (83.3) %
- Sustained headache pain freedom: Yes, % ([2]; 2-48 hours postdose, N = 18): (16.7) %
- Sustained headache pain relief: No, % ([2]; 2-48 hours postdose, N = 18): (38.9) %
- Sustained headache pain relief: Yes, % ([2]; 2-48 hours postdose, N = 18): (61.1) %
- Most Bothersome Symptom: MBS free, % [2, 3]: (38.9) %
- Most Bothersome Symptom: MBS present, % [2, 3]: (61.1) %
- Severity of headache pain: Mild pain, % [2, 3]: (50.0) %
- Severity of headache pain: Moderate pain, % [2, 3]: (33.3) %
- Severity of headache pain: Pain free, % [2, 3]: (5.6) %
- Severity of headache pain: Severe pain, % [2, 3]: (11.1) %
- Most Bothersome Symptom: MBS free, % ([2]; 1 hr postdose, Total, N = 18): (38.9) %
- Most Bothersome Symptom: MBS present, % ([2]; 1 hr postdose, Total, N = 18): (61.1) %
- Severity of headache pain: Mild pain, % ([2]; 1 hr postdose, Total, N = 18): (50.0) %
- Severity of headache pain: Moderate pain, % ([2]; 1 hr postdose, Total, N = 18): (33.3) %
- Severity of headache pain: Pain free, % ([2]; 1 hr postdose, Total, N = 18): (5.6) %
- Severity of headache pain: Severe pain, % ([2]; 1 hr postdose, Total, N = 18): (11.1) %
- Headache Pain level 1 hr ([2]; 1 hr postdose, individual migraine subjects (N = 12)): Severe and Mild and None and Moderate
- Most Bothersome Symptom: MBS free, % [2, 4]: (66.7) %
- Severity of headache pain: Mild pain, % [2, 4]: (61.1) %
- Severity of headache pain: Moderate pain, % [2, 4]: (16.7) %
- Severity of headache pain: Pain free, % [2, 4]: (22.2) %
- Most Bothersome Symptom: MBS free, % ([2]; 2 h postdose, Total, N = 18): (66.7) %
- Most Bothersome Symptom: MBS present, % ([2]; 2 h postdose, Total, N = 18): (33.3) %
- Severity of headache pain: Mild pain, % ([2]; 2 h postdose, Total, N = 18): (61.1) %
- Severity of headache pain: Moderate pain, % ([2]; 2 h postdose, Total, N = 18): (16.7) %
- Severity of headache pain: Pain free, % ([2]; 2 h postdose, Total, N = 18): (22.2) %
- Headache Pain level 2 hr ([2]; 2 hr postdose, individual migraine subjects (N = 12)): Moderate and None and Mild
- Most Bothersome Symptom: MBS free, % [2, 5]: (77.8) %
- Severity of headache pain: Mild pain, % [2, 5]: (22.2) %
- Severity of headache pain: Moderate pain, % [2, 5]: (5.6) %
- Severity of headache pain: Pain free, % [2, 5]: (55.6) %
- Most Bothersome Symptom: MBS free, % ([2]; 4 h postdose, Rescue, N = 18): (11.1) %
- Most Bothersome Symptom: MBS present, % ([2]; 4 h postdose, Rescue, N = 18): (11.1) %
- Severity of headache pain: Mild pain, % ([2]; 4 h postdose, Rescue, N = 18): (5.6) %
- Severity of headache pain: Pain free, % ([2]; 4 h postdose, Rescue, N = 18): (11.1) %
- Most Bothersome Symptom: MBS free, % ([2]; 4 h postdose, Total, N = 18): (88.9) %
- Most Bothersome Symptom: MBS present, % ([2]; 4 h postdose, Total, N = 18): (11.1) %
- Severity of headache pain: Mild pain, % ([2]; 4 h postdose, Total, N = 18): (27.8) %
- Severity of headache pain: Moderate pain, % ([2]; 4 h postdose, Total, N = 18): (5.6) %
- Severity of headache pain: Pain free, % ([2]; 4 h postdose, Total, N = 18): (66.7) %
- Headache Pain level 4 hr ([2]; 4 hr postdose, individual migraine subjects (N = 12)): Moderate and None and Mild and Mild [b]
- Severity of headache pain: Mild pain, % [2, 6]: (16.7) %
- Severity of headache pain: Moderate pain, % [2, 6]: (11.1) %
- Severity of headache pain: Pain free, % [2, 6]: (72.2) %
- Severity of headache pain: Moderate pain, % ([2]; 24 h postdose (D2), Rescue, N = 18): (11.1) %
- Severity of headache pain: Mild pain, % [2, 7]: (16.7) %
- Severity of headache pain: Moderate pain, % [2, 7]: (22.2) %
- Severity of headache pain: Pain free, % [2, 7]: (72.2) %
- Most Bothersome Symptom: MBS free, % ([2]; 24 h postdose (Day 2), No rescue, N = 18): (72.2) %
- Most Bothersome Symptom: MBS free, % ([2]; 24 h postdose (Day 2), Rescue, N = 18): (11.1) %
- Most Bothersome Symptom: MBS free, % ([2]; 24 h postdose (Day 2), Total, N = 18): (83.3) %
- Severity of headache pain: Pain free, % ([2]; 48 h postdose (D3), No rescue, N = 18): (83.3) %
- Severity of headache pain: Mild pain, % [2, 8]: (11.1) %
- Severity of headache pain: Moderate pain, % [2, 8]: (22.2) %
- Severity of headache pain: Mild pain, % [2, 9]: (11.1) %
- Severity of headache pain: Moderate pain, % [2, 9]: (22.2) %
- Severity of headache pain: Pain free, % [2, 9]: (83.3) %
- Most Bothersome Symptom: MBS free, % ([2]; 48 h postdose (Day 3), No rescue, N = 18): (66.7) %
- Most Bothersome Symptom: MBS free, % ([2]; 48 h postdose (Day 3), Rescue, N = 18): (11.1) %
- Most Bothersome Symptom: MBS free, % ([2]; 48 h postdose (Day 3), Total, N = 18): (77.8) %
- Most Bothersome Symptom: MBS free, % ([2]; Discharge, No rescue, N = 18): (72.2) %
- Severity of headache pain: Mild pain, % ([2]; Discharge, No rescue, N = 18): (11.1) %
- Severity of headache pain: Pain free, % ([2]; Discharge, No rescue, N = 18): (66.7) %
- Most Bothersome Symptom: MBS free, % ([2]; Discharge, Rescue, N = 18): (16.7) %
- Severity of headache pain: Mild pain, % ([2]; Discharge, Rescue, N = 18): (5-6) %
- Severity of headache pain: Pain free, % ([2]; Discharge, Rescue, N = 18): (11.1) %
- Most Bothersome Symptom: MBS free, % ([2]; Discharge, Total, N = 18): (88.9) %
- Severity of headache pain: Mild pain, % ([2]; Discharge, Total, N = 18): (16.7) %
- Severity of headache pain: Pain free, % ([2]; Discharge, Total, N = 18): (77.8) %
- Freedom from MBS at 2 hours: No, % ([2]; N = 18): (33.3) %
- Freedom from MBS at 2 hours: Yes, % ([2]; N = 18): (66.7) %
- Freedom from both migraine headache pain and MBS at 2 hours: No, % ([2]; N = 18): (77.8) %
- Freedom from both migraine headache pain and MBS at 2 hours: Yes, % ([2]; N = 18): (22.2) %
- Freedom from migraine headache pain at 2 hours: No, % ([2]; N = 18): (77.8) %
- Freedom from migraine headache pain at 2 hours: Yes, % ([2]; N = 18): (22.2) %
- MBS (Y/N) 1 hr ([2]; most bothersome symptom present, 1 hr postdose, individual migraine subjects (N = 12)): Yes and No
- MBS (Y/N) 2 hr ([2]; most bothersome symptom present, 2 hr postdose, individual migraine subjects (N = 12)): No and Yes
- MBS (Y/N) 4 hr ([2]; most bothersome symptom present, 4 hr postdose, individual migraine subjects (N = 12)): No and Yes and Yes [b]
